Laboratory results reported in patent US10597388B2, “Pyridazinone herbicides” (FMC CORPORATION, priority 2014, dated 2020).

Key:
Type in all cases: in vivo
kochia (Kochia scoparia) [1] = test: Test A greenhouse herbicide test, pre- and postemergence
Summary of the method: (§1)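 Visual injury ratings, 0 (no effect) to 100 (complete control), versus untreated plants after roughly 10 d in a greenhouse. Compounds, formulated in a surfactant-containing non-phytotoxic solvent, were sprayed on loam–sand soil after sowing (pre) or on one- to two-leaf plants 2–10 cm tall (post).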

[2] = test system: ragweed (common ragweed, Ambrosia elatior); test: as above
Summary of the method: as §1

[3] = test system: foxtail, giant (giant foxtail, Setaria faberii); test: as above
Summary of the method: as §1

[4] = test system: barnyardgrass (Echinochloa crus-galli); test: as above
Summary of the method: as §1

corn (Zea mays) = test: as above; settings: Postemergence
Summary of the method: as §1

[5] = test system: chickweed (common chickweed, Stellaria media); test: Test C greenhouse herbicide test, postemergence
Summary of the method: (§2)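 Test chemicals were applied postemergence to greenhouse plants at the 1- to 4-leaf stage (2–18 cm tall) growing in peat/vermiculite medium. After 13–15 d, injury was rated visually against untreated controls on a 0–100 scale (0 = no effect, 100 = complete control).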

kochia (Kochia scoparia) [6] = test: Test C greenhouse herbicide test, postemergence
Summary of the method: as §2

[7] = test system: oat, wild (wild oat, Avena fatua); test: Test C greenhouse herbicide test, postemergence
Summary of the method: as §2

rice (Oryza sativa) = test: Test B flooded paddy test; settings: 250 g ai/ha, Flood; visual rating on scale of 0 to 100 where 0 is no effect and 100 is complete control; 13 to 15 d after treatment
Summary of the method: (§3)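 Ratings use a 0-100 visual scale, where 100 is complete control, and compare treated plants with controls after 13 to 15 d of greenhouse growth. Compound went straight into paddy water kept 3 cm over the soil surface, applied to seedlings at the 2-leaf stage.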

[8] = test system: sedge, umbrella (small-flower umbrella sedge, Cyperus difformis); test: Test B flooded paddy test; settings: 250 g ai/ha, Flood; visual rating on scale of 0 to 100 where 0 is no effect and 100 is complete control; 13 to 15 d after treatment
Summary of the method: as §3

[9] = test system: barnyardgrass (Echinochloa crus-galli); test: Test B flooded paddy test; settings: 250 g ai/ha, Flood; visual rating on scale of 0 to 100 where 0 is no effect and 100 is complete control; 13 to 15 d after treatment
Summary of the method: as §3

[10] = test system: ducksalad (Heteranthera limosa); test: Test B flooded paddy test; settings: 250 g ai/ha, Flood; visual rating on scale of 0 to 100 where 0 is no effect and 100 is complete control; 13 to 15 d after treatment
Summary of the method: as §3

[11] = Postemergence, 125 g ai/ha, 0 to 100 scale where 0 is no effect and 100 is complete control
[12] = Postemergence, 500 g ai/ha, visual rating after approx. 10 d, 0 to 100 scale (0 no effect, 100 complete control)
[13] = Preemergence, 125 g ai/ha, 0 to 100 scale where 0 is no effect and 100 is complete control
[14] = Preemergence, 500 g ai/ha, 0 to 100 scale where 0 is no effect and 100 is complete control
[15] = 125 g ai/ha, 0 to 100 scale where 0 is no effect and 100 is complete control
[16] = 500 g ai/ha, visual rating after approx. 10 d, 0 to 100 scale (0 no effect, 100 complete control)
[17] = Postemergence, 31 g ai/ha, scale 0 to 100 (0 no effect, 100 complete control)
[18] = Postemergence, 125 g ai/ha, scale 0 to 100, 0 is no effect, 100 is complete control
[19] = Postemergence, 250 g ai/ha, scale 0 to 100, 0 no effect, 100 complete control, 13 to 15 d
[20] = postemergence, 62 g ai/ha, scale 0 to 100, 0 no effect, 100 complete control
[21] = Postemergence, 62 g ai/ha, 0 to 100 scale (0 no effect, 100 complete control)
[22] = postemergence, 125 g ai/ha, scale 0 to 100, 0 no effect, 100 complete control

Row | SMILES | Plant response rating, Kochia (kochia (Kochia scoparia) [1]; [11]) | Plant response rating, Kochia (kochia (Kochia scoparia) [1]; [12]) | Kochia plant response rating (kochia (Kochia scoparia) [1]; [13]) | Plant response rating, Kochia (kochia (Kochia scoparia) [1]; [14]) | Plant response rating, Ragweed [2, 11] | Plant response rating, Ragweed [2, 12] | Ragweed plant response rating [2, 13] | Plant response rating, Ragweed [2, 14] | Plant response rating, Foxtail, Giant [3, 11] | Plant response rating, Foxtail, Giant [3, 12] | Foxtail, Giant plant response rating [3, 13] | Plant response rating, Foxtail, Giant [3, 14] | Plant response rating, Barnyardgrass [4, 11] | Plant response rating, Barnyardgrass [4, 12] | Barnyardgrass plant response rating [4, 13] | Plant response rating, Barnyardgrass [4, 14] | Plant response rating, Corn (corn (Zea mays); [15]) | Plant response rating, Corn (corn (Zea mays); [16]) | Plant response rating, Chickweed [5, 17] | Plant response rating, Chickweed [5, 19] | further results
1 | CCC(=O)Oc1c(C)nn(C)c(=O)c1-c1ccc(F)c2ccccc12 [Compound 113] | 100 | 100 | 90 | 100 | 90 | 100 | 70 | 90 | 40 | 90 | 70 | 100 | 40 | 90 | 70 | 100 | 20 | 70 | 90 | 100 | Plant response rating, Chickweed [5, 18]: 98; Chickweed plant response rating [5, 20]: 90; Plant response rating, Kochia (kochia (Kochia scoparia) [6]; [17]): 95; Plant response rating, Kochia (kochia (Kochia scoparia) [6]; [18]): 95; Plant response rating, Kochia (kochia (Kochia scoparia) [6]; [19]): 100; Plant response rating, Oat, Wild [7, 17]: 90; Plant response rating, Oat, Wild [7, 18]: 90; Plant response rating, Oat, Wild [7, 19]: 90; Plant response rating, Rice (rice (Oryza sativa)): 0; Plant response rating, Sedge, Umbrella [8]: 0; Plant response rating, Barnyardgrass [9]: 0; Plant response rating, Ducksalad [10]: 0
2 | Cc1nn(C)c(=O)c(-c2c(C)sc3ccc(C(F)(F)F)cc23)c1O [Compound 121] | 70 | 80 | 0 | 30 | 90 | 90 | 60 | 80 | 60 | 80 | 80 | 80 | 30 | 50 | 20 | 50 | 20 | 20 | 90 | 98 | Plant response rating, Chickweed [5, 18]: 90; Chickweed plant response rating [5, 20]: 90; Plant response rating, Kochia (kochia (Kochia scoparia) [6]; [17]): 90; Plant response rating, Kochia (kochia (Kochia scoparia) [6]; [18]): 95; Plant response rating, Kochia (kochia (Kochia scoparia) [6]; [19]): 95; Plant response rating, Oat, Wild [7, 17]: 65; Plant response rating, Oat, Wild [7, 18]: 80; Plant response rating, Oat, Wild [7, 19]: 90; Plant response rating, Rice (rice (Oryza sativa)): 0; Plant response rating, Sedge, Umbrella [8]: 0; Plant response rating, Barnyardgrass [9]: 0; Plant response rating, Ducksalad [10]: 0
3 | Cc1nn(C)c(=O)c(-c2cccc3ccc(Br)cc23)c1O [Compound 126] | 90 | 90 | 50 | 90 | 90 | 90 | 70 | 80 | 20 | 60 | 10 | 70 | 30 | 60 | 40 | 80 | 0 | 20 | 90 | 100 | Chickweed plant response rating [5, 21]: 90; Plant response rating, Chickweed [5, 18]: 95; Plant response rating, Kochia (kochia (Kochia scoparia) [6]; [17]): 90; Kochia plant response rating (kochia (Kochia scoparia) [6]; [21]): 90; Plant response rating, Kochia (kochia (Kochia scoparia) [6]; [18]): 95; Plant response rating, Kochia (kochia (Kochia scoparia) [6]; [19]): 95; Plant response rating, Oat, Wild [7, 17]: 60; Oat, Wild plant response rating [7, 21]: 80; Plant response rating, Oat, Wild [7, 18]: 90; Plant response rating, Oat, Wild [7, 19]: 85; Plant response rating, Rice (rice (Oryza sativa)): 0; Plant response rating, Sedge, Umbrella [8]: 0; Plant response rating, Barnyardgrass [9]: 0; Plant response rating, Ducksalad [10]: 30
4 | COC(=O)Oc1c(C)nn(C)c(=O)c1-c1ccc(F)c2ccccc12 [Compound 130] | 100 | 100 | 60 | 100 | 70 | 100 | 60 | 90 | 70 | 90 | 30 | 90 | 60 | 90 | 30 | 100 | 0 | 30 | 90 | 100 | Chickweed plant response rating [5, 21]: 95; Chickweed plant response rating [5, 22]: 98; Plant response rating, Kochia (kochia (Kochia scoparia) [6]; [17]): 95; Kochia plant response rating (kochia (Kochia scoparia) [6]; [21]): 95; Plant response rating, Kochia (kochia (Kochia scoparia) [6]; [19]): 100; Kochia plant response rating (kochia (Kochia scoparia) [6]; [22]): 100; Plant response rating, Oat, Wild [7, 17]: 60; Oat, Wild plant response rating [7, 21]: 80; Plant response rating, Oat, Wild [7, 19]: 95; Oat, Wild plant response rating [7, 22]: 85; Plant response rating, Rice (rice (Oryza sativa)): 0; Plant response rating, Sedge, Umbrella [8]: 0; Plant response rating, Barnyardgrass [9]: 0; Plant response rating, Ducksalad [10]: 0
